Results: patent publication US12377066B2, “Treatment of diseases associated with biliary system destruction” (Assistance Publique-Hopitaux de Paris, priority 2018, dated 2025)
“Also recorded” adds a separate entry of the source.

Experiments:
PPARα = format: in vivo; conditions: Vps15 LKO mice, two weeks
Experimental: All animals used in the study were fed ad libitum standard chow diet (Teklad global protein diet; 20% protein, 75% carbohydrate, 5% fat) and kept under 12 h/12 h (8 am/8 pm) light on/off cycle. Animals were sacrificed between 2-4 pm unless indicated. […] Plasmatic TG, Billirubin, Hydroxybutyrate, AST and ALAT activities were measured enzymatically using Olympus AU 400 apparatus.
Total RNA was isolated from liver tissue using RNAeasy Lipid Tissue Mini Kit (Qiagen). Single-strand complementary DNA was synthesized from 1 μg of total RNA using 125 ng of random hexamer primers and SuperScript II (Life Technologies). RT-qPCR was performed on MX3005P instrument (Agilent) using a Brilliant III Ultra-Fast QPCR Master Mix (Agilent). The relative amounts of the mRNAs studied were determined by means of the 2^−ΔΔCT method, with pinin, S18, cyclophilin, eIF2α, HUS, Ubiquitin as reference genes for studies in mice and pinin for studies in human patient samples.

Vps15 LKO mice [1] = assay: Histological analyses of liver tissue (hematoxylin/eosin, Sirius Red) in treated control and Vps15 LKO mice; format: in vivo; conditions: two weeks
Source text: (§1) The Vsp15 conditional mutant mouse line was established at the MCI/ICS (Mouse Clinical Institute—Institute Clinique de la Souris, Illkirch, France) as described (Nemazanyy, I. et al. Defects of Vps15 in skeletal muscles lead to autophagic vacuolar myopathy and lysosomal disease. EMBO Mol. Med. (2013). Liver specific Vps15 knockout mouse line was generated as described (Nemazanyy I et al., Class III PI3K regulates organismal glucose homeostasis by providing negative feedback on hepatic insulin signalling. Nat Commun. 2015 Sep. 21; 6:8283.). Mice were housed in specific pathogen-free conditions. Male mice (5-8-week-old) were used for the experimentation. Mice were randomly allocated to experimental groups and at least three animals were used for each condition (as indicated in figure legends) to ensure statistics analyses. Animal numbers were chosen to reflect the expected magnitude of response that takes into account the variability observed in previous experiments. All animal studies were approved by the Direction Départementale des Services Vétérinaires, Prefecture de Police, Paris, France (authorization number 75-1313) and the ethical committee of Paris Descartes University (17-052).
(§2) All animals used in the study were fed ad libitum standard chow diet (Teklad global protein diet; 20% protein, 75% carbohydrate, 5% fat) and kept under 12 h/12 h (8 am/8 pm) light on/off cycle. Animals were sacrificed between 2-4 pm unless indicated. […] For 5-bromo-2′deoxyuridine (BrdU) incorporation, mice were treated with BrdU (3 mg/ml, Sigma-Aldrich) dissolved in drinking water for 3 days before sacrifice. […]. For immunohistochemical analysis liver tissue was fixed overnight in phosphate-buffered 10% formalin and embedded in paraffin. […] sections were cut and processed either for staining with eosin/hematoxylin, Sirius Red or for immunohistochemical analyses. Plasmatic TG, Billirubin, Hydroxybutyrate, AST and ALAT activities were measured enzymatically using Olympus AU 400 apparatus.
For immunohistochemical analysis, liver tissue was fixed overnight in phosphate-buffered 10% formalin and embedded in paraffin. 4 μm sections were cut and processed either for staining with eosin/hematoxylin or for immunohistochemical analyses. Post-staining analyses were performed on digitalized with the NanoZoomer S210 (Hamamatsu) liver tissue slices. Immunohistochemistry of liver tissue sections was performed using anti-p62 (Abnova), anti-TROMA-III-s (DSHB), anti-cytokeratin (AbCyst) or with anti-Lamp1 (Abcam) antibodies.

Vps15 LKO mice [2] = assay: Immunoblot analyses of total protein liver extracts (Lamp1, Lamp2, p62, LC3, FABP1) of treated mice; format: in vivo; conditions: two weeks
Source text: as §1, §2
To prepare protein extract for immunoblot analysis, liver tissue was homogenized in lysis buffer containing 20 mM Tris-HCl (pH 8.0), 5% glycerol, 138 mM NaCl, 2.7 mM KCl, 1% NP-40, 20 mM NaF, 5 mM EDTA, 1× protease inhibitors (Roche), 1× PhosphoStop Inhibitors (Roche). Homogenates were spun at 12000×g for 10 min at 4° C. Protein extracts were resolved by SDS-PAGE before transfer onto PVDF membrane followed by incubation with the primary antibodies and HRP-linked secondary antibodies. Immobilon Western Chemiluminescent HRP Substrate (Millipore) was used for the detection. The images were acquired using ChemiDocTouch Imaging System (BioRad) and the quantification performed using ImageJ software.

Vps15 LKO mice [3] = assay: Plasma biochemical analyses (TG, ALAT, AST) and spleen weight to body weight ratio in treated mice; format: in vivo; conditions: two weeks
Source text: as §1, §2

Vps15 LKO mice [4] = assay: Targeted metabolomics of acyl-carnitine fatty acid species in liver tissue of treated mice; format: in vivo; conditions: two weeks
Source text: as §1, §2
Targeted metabolomics analyses were performed on liver tissue extracts obtained with solution of 50% methanol, 30% ACN, and 20% water. The volume of extraction solution added was calculated from weight of powdered tissue (60 mg/ml). After addition of extraction solution, samples were vortexed for 5 min at 4° C., and then centrifuged at 16,000×g for 15 min at 4° C. The supernatants were collected and analysed by liquid chromatography-mass spectrometry using SeQuant ZIC-pHilic column (Merck) for the liquid chromatography separation. Mobile phase A consisted of 20 mM ammonium carbonate plus 0.1% ammonia hydroxide in water. Mobile phase B consisted of ACN. The flow rate was kept at […], and the gradient was 0 min, 80% of B; 30 min, 20% of B; 31 min, 80% of B; and 45 min, 80% of B. The mass spectrometer (QExactive Orbitrap, Thermo Fisher Scientific) was operated in a polarity switching mode and metabolites were identified using TraceFinder Software (Thermo Fisher Scientific). For analyses, metabolomics data were normalized using the median normalization method. MetaboAnalyst 4.0 software was used for heatmaps generation. The algorithm for heatmap clustering was based on the Pearson distance measure for similarity and the Ward linkage method for biotype clustering.

BA patients = conditions: large clinical use during many years, no controlled studies; cited from earlier work
[5] = Vps15 LKO mice, drug incorporated in food
[6] = Vps15 LKO mice, drug incorporated in food, listed as BEZA
[7] = Vps15 LKO mice, once per day by oral gavage
[8] = Vps15 LKO mice, once per day by oral gavage, listed as FENO
[9] = control mice, fenofibrate incorporated in food

## CC(C)(Oc1ccc(CCNC(=O)c2ccc(Cl)cc2)cc1)C(=O)O [bezafibrate, 2-(4-(2-((4-chlorobenzoyl)amino)ethyl)phenoxy)-2-methylpropanoic acid]
PPARα; drug incorporated in food (fenofibrate 200 mg/kg or bezafibrate 0.5%)
  PPARα transcriptional activity in liver (transcript levels of PPARα target genes): equally efficient in restoring PPARα transcriptional activity; also recorded: restoration of PPARα function
PPARα; drug incorporated in food
  liver inflammation (transcript levels of TNF1α, IL1β, F4/80): effective in reducing the inflammation
Vps15 LKO mice [1]; [5]
  hepatocyte volume (histology): reduce hepatocyte volume
Vps15 LKO mice [1]; [6]
  hepatocyte vacuolation (hematoxylin/eosin): sufficient to decrease hepatocyte vacuolation; also recorded: rescues hepatocyte vacuolation
  portal area organization / architecture of intrahepatic biliary system (histology): improve the portal area organization; also recorded: ameliorates architecture of intrahepatic biliary system
Vps15 LKO mice [2]; [5]
  LC3 lipidation (LC3-II form) in liver (immunoblot): promoted LC3-lipidation
  accumulation of Lamp proteins (Lamp1, Lamp2) in liver (immunoblot): reduced
  autophagic clearance in liver: promoted autophagic clearance
  p62 protein levels in liver (immunoblot): reduction of p62 accumulation
  protein expression of PPARα target Fabp1 in liver (immunoblot): equally effective in restoring
Vps15 LKO mice [2]; [6]
  LC3 lipidation (LC3-II form) in liver (immunoblot): increased lipidation of LC3
  accumulation of Lamp proteins (Lamp1, Lamp2) in liver (immunoblot): decreased Lamp1 and p62 protein levels
  p62 protein levels in liver (immunoblot): decreased Lamp1 and p62 protein levels
Vps15 LKO mice [3]; [5]
  liver damage: activity of transaminases (ALAT, AST) in plasma: fenofibrate, independently of mode of administration, was more effective in lowering liver damage compared to bezafibrate treatment
  spleen hypertrophy (ratio of spleen weight to body weight): decreasing spleen hypertrophy
  triglyceride (TG) levels in plasma: effective in lowering TG levels
Vps15 LKO mice [4]; drug incorporated in food
  fatty acid oxidation in liver (metabolomics): marked restoration of fatty acid oxidation
  levels of long-chain fatty acid carnitines in liver: decreased levels of long-chain fatty acid carnitines
  levels of short-chain fatty acid carnitines in liver: increased levels of short-chain fatty acid carnitines
Vps15 LKO mice [4]; drug incorporated in food, listed as BEZA
  fatty acid oxidation in liver (metabolomics): sufficient to restore the metabolic activity such as fatty-acid oxidation

## CC(C)OC(=O)C(C)(C)Oc1ccc(C(=O)c2ccc(Cl)cc2)cc1 [fenofibrate, 2-{4-[(4-chlorophenyl)carbonyl]phenoxy}-2-méthylpropanoatede propan-2-yle]
Vps15 LKO mice [1]; [5]
  hepatocyte vacuolation (hematoxylin/eosin): significantly decrease hepatocyte vacuolation; also recorded: rescues hepatocyte vacuolation
  hepatocyte volume (histology): reduce hepatocyte volume
  inflammatory cell infiltration in liver (histology): reduce hepatocyte volume and inflammatory cell infiltration
  liver fibrosis / collagen deposition (quantification of Sirius Red staining): lower; also recorded: decreased
  portal area organization / architecture of intrahepatic biliary system (histology): effective in improving the portal area organization; also recorded: ameliorates architecture of biliary system
Vps15 LKO mice [1]; [7]
  hepatocyte volume (histology): reduce hepatocyte volume
Vps15 LKO mice [1]; [8]
  hepatocyte vacuolation (hematoxylin/eosin): sufficient to decrease hepatocyte vacuolation; also recorded: rescues hepatocyte vacuolation
  portal area organization / architecture of intrahepatic biliary system (histology): improve the portal area organization; also recorded: ameliorates architecture of intrahepatic biliary system
Vps15 LKO mice [1]; [9]
  hepatocyte hypertrophy (histology): resulted in hepatocyte hypertrophy
Vps15 LKO mice [2]; [5]
  LC3 lipidation (LC3-II form) in liver (immunoblot): induced an important lipidation of LC3 protein; also recorded: promoted LC3-lipidation
  accumulation of Lamp proteins (Lamp1, Lamp2) in liver (immunoblot): significantly ameliorated; also recorded: significantly reverted
  autophagic clearance in liver: promotes autophagic clearance
  p62 protein levels in liver (immunoblot): significantly ameliorated; also recorded: decreased levels of p62 protein
Vps15 LKO mice [2]; [7]
  LC3 lipidation (LC3-II form) in liver (immunoblot): promoted LC3-lipidation
  accumulation of Lamp1 protein in liver (immunoblot): reduced
  autophagic clearance in liver: promoted autophagic clearance
  p62 protein levels in liver (immunoblot): reduction of p62 accumulation
  protein expression of PPARα target Fabp1 in liver (immunoblot): equally effective in restoring
Vps15 LKO mice [2]; [8]
  LC3 lipidation (LC3-II form) in liver (immunoblot): increased lipidation of LC3
  accumulation of Lamp1 protein in liver (immunoblot): decreased Lamp1 and p62 protein levels
  p62 protein levels in liver (immunoblot): decreased Lamp1 and p62 protein levels
Vps15 LKO mice [2]; [9]
  LC3 lipidation (LC3-II form) in liver (immunoblot): induced an important lipidation of LC3 protein; also recorded: promoted LC3-lipidation
Vps15 LKO mice [3]; [5]
  liver damage: activity of transaminases (ALAT, AST) in plasma: significantly decreased activity of transaminases; also recorded: more effective in lowering liver damage compared to bezafibrate; also recorded: significantly ameliorates liver damage
  triglyceride (TG) levels in plasma: resulted in their normalization; also recorded: effective in lowering TG levels; also recorded: beneficial effect in lowering plasmatic triglycerides
Vps15 LKO mice [3]; [7]
  triglyceride (TG) levels in plasma: effective in lowering TG levels
Vps15 LKO mice [3]; [9]
  triglyceride levels in plasma: effective in lowering triglyceride levels
Vps15 LKO mice [4]; once per day by oral gavage
  fatty acid oxidation in liver (metabolomics): marked restoration of fatty acid oxidation
  levels of long-chain fatty acid carnitines in liver: decreased levels of long-chain fatty acid carnitines
  levels of short-chain fatty acid carnitines in liver: increased levels of short-chain fatty acid carnitines
Vps15 LKO mice [4]; once per day by oral gavage, listed as FENO
  fatty acid oxidation in liver (metabolomics): sufficient to restore the metabolic activity such as fatty-acid oxidation

## desoxycholic acid [UDCA]
BA patients
  prognosis of patients (% of liver transplantation or survival): provided no evidence that it might positively affect prognosis of the patients
